The structures appear in SMILES notation.

We go through nine molecules from patent US20010031865A1, “Substituted 3-phenyluracils” (priority 1991, published 2001).

Series [1] deals with young, 4-leaved cotton plants of the Stoneville 825 variety. The series can be described thus: Defoliation of young cotton plants (Use Example 1). It is filed as in vivo. Conditions: after 13 days. As to the method: The comparative agent used was
A 6,7-dihydrodipyrido[1,2-alpha:2′, 1′-c]pyridilium as the dibromide monohydrate salt (common name: Diquat®).
The comparative agent was used in the form-of the preformulated commercial product.
The test plants used were young, 4-leaved cotton plants (without cotyledons) of the Stoneville 825 variety, which were grown under greenhouse conditions (relative humidity from 50 to 70%; day/night temperature 27/20° C.).
The amount of water applied was equivalent to […]. After 13 days, the number of dropped leaves and the degree of defoliation in % were determined.

In series [2] the test system is undesirable broad-leaved plants and grasses. The experiment in a line: Greenhouse herbicidal test, postemergence treatment. The format is in vivo. The following applies: for control of undesirable broad-leaved plants and grasses: postemergence use of 0.5 kg/ha, greenhouse. As to the method: The seeds of the test plants were sown separately according to species. For the purpose of the postemergence treatment, the test plants were grown in the test vessels themselves or were planted in the test vessels a few days beforehand. The active ingredients suspended or emulsified in water were not applied until a height of growth of from 3 to 15 cm, depending on the form of growth. The plants were kept at 10-25° C. or 20-35° C., according to species. The test periods extended over from 2 to 4 weeks. During this time, the plants were tended and their reaction to the individual treatments was evaluated. Rating was based on a scale from 0 to 100. 100 means no emergence of the plants or complete destruction of at least the above-ground parts and 0 means no damage on normal growth. The plants used in the greenhouse experiments consisted of the following species: [table]

Where [3] appears, read: converted application rate 0.10 kg/ha.

Molecule `c1cc[n+]2c(c1)-c1cccc[n+]1CC2` [A, 6,7-dihydrodipyrido[1,2-alpha:2′, 1′-c]pyridilium, reference compound] had a Defoliation in series [1] (setting [3]) of 0%.

In the case of `Cn1c(C(F)(F)F)cc(=O)n(-c2ccc(Cl)c(C=O)c2)c1=O` [compound 1.1, 3-(4-Chloro-3-formylphenyl)-2,4-dioxo-1-methyl-6-trifluoromethyl-1,2,3,4-tetrahydropyrimidine], the “control of undesirable broad-leaved plants and grasses” value in series [2] is “very readily controlled”.

In the case of `CCO/N=C/c1cc(-n2c(=O)cc(C(F)(F)F)[nH]c2=O)ccc1Cl` [compound 1.4, 3-[4-Chloro-3-(ethoximinomethyl)-phenyl]-2,4-dioxo-6-trifluoromethyl-1,2,3,4-tetrahydropyrimidine], the melting point (usually the temperature, or range, at which the solid turns liquid) lay within 221 to 223 °C.

Take `CCO/N=C/c1cc(-n2c(=O)cc(C(F)(F)F)n(C)c2=O)ccc1Cl` [compound 1.5, 3-[4-Chloro-3-(ethoximinomethyl)-phenyl]-2,4-dioxo-1-methyl-6-trifluoromethyl-1,2,3,4-tetrahydropyrimidine]: the melting point was 132 to 134 °C. For the same molecule, the “control of undesirable broad-leaved plants and grasses” value in series [2] is given as “very readily controlled”.

On to `CCCCOC(=O)/C(Cl)=C/c1cc(-n2c(=O)cc(C(F)(F)F)n(C)c2=O)ccc1Cl` [compound 1.15, 3-[4-Chloro-3-(2-chloro-2-butoxycarbonylethen-1-yl)-phenyl]-2,4-dioxo-1-methyl-6-trifluoromethyl-1,2,3,4-tetrahydropyrimidine], for which the “control of undesirable broad-leaved plants and grasses” value in series [2] was “very readily controlled”.

Consider `COC(=O)/C(C#N)=C/c1cc(-n2c(=O)cc(C(F)(F)F)n(C)c2=O)ccc1Cl` [compound 1.22, 3-[4-Chloro-3-(2-cyano-2-methoxycarbonylethenyl)-phenyl]-2,4-dioxo-1-methyl-6-trifluoromethyl-1,2,3,4-tetrahydropyrimidine], for which the “control of undesirable broad-leaved plants and grasses” value in series [2] is on record as “very readily controlled”.

`CCOC(=O)N/N=C/c1cc(-n2c(=O)cc(C(F)(F)F)n(C)c2=O)ccc1Cl` [compound 1.91, 3-(4-Chloro-3-ethoxycarbonylhydrazonomethylphenyl)-2,4-dioxo-1-methyl-6-trifluoromethyl-1,2,3,4-tetrahydropyrimidine] displayed a melting point of 219 to 221 °C.

Consider `Cn1c(C(F)(F)F)cc(=O)n(-c2ccc(Cl)c(C3OCCCO3)c2)c1=O` [compound 2.1, 3-[4-Chloro-3-(1,3-dioxan-2-yl)-phenyl]-2,4-dioxo-1-methyl-6-trifluoromethyl-1,2,3,4-tetrahydropyrimidine], for which, in series [2], the “control of undesirable broad-leaved plants and grasses” value is given as “very readily controlled”.

On to `COC(=O)/C(Cl)=C/c1cc(-n2c(OC)nc(C(F)(F)F)cc2=O)ccc1Cl` [compound 3.1, 3-[4-Chloro-3-(2-chloro-2-methoxycarbonylethenyl)-phenyl]-2-methoxy-4-oxo-6-trifluoromethyl-3,4-dihydro-pyrimidine], for which the Defoliation is on record as 53% in series [1] (converted application rate 0.05 kg/ha) and 73% in series [1] (setting [3]). In series [2] (postemergence method, application rates of 0.06 and 0.03 kg/ha), the “control of undesirable broad-leaved plants” value was “very readily controlled”.
